From ChEMBL document CHEMBL5325431, “Synthesis of thieno[3,2-e]pyrrolo[1,2-a]pyrimidine derivatives and their precursors containing 2-aminothiophenes fragments as anticancer agents for therapy of pulmonary metastatic melanoma” (Eur J Med Chem, 2023)

Legend:
B16-F10 [1] = test: Cytotoxicity against mouse B16-F10 cells assessed as cell survival incubated for 24 hrs by alamarblue staining based analysis; format: functional; details: B16-F10, 24 h
[2] = Cytotoxicity against NF2-deficient mouse MEF cells assessed as cell survival incubated for 24 hrs by alamarblue staining based analysis; format: toxicity
MCF7 = test: Cytotoxicity against human MCF7 cells assessed as inhibition of cell growth; format: functional, cell-based
JAR = test: Cytotoxicity against human JAR cells assessed as inhibition of cell growth; format: functional, cell-based
B16-F10 [3] = test: Antitumor activity against metastatic mouse B16-F10 cells implanted in C57BL/6 mouse assessed as number of lung metastases at 9 to 9.5 mg/kg, ip administered for 12 days by histological analysis (reference value: 150 +/- 7); format: functional; details: dose 9-9.5 mg/kg, time 12 day
B16-F10 [4] = test: Antitumor activity against metastatic mouse B16-F10 cells implanted in C57BL/6 mouse assessed as number of lung metastases at 9 to 9.5 mg/kg, ip administered for 15 days by histological analysis (reference value: 175 +/- 10); format: functional; details: dose 9-9.5 mg/kg, time 15 day
B16-F10 [5] = test: Antitumor activity against metastatic mouse B16-F10 cells implanted in C57BL/6 mouse assessed as number of lung metastases at 9 to 9.5 mg/kg, ip administered for 19 days by histological analysis (reference value: 190 +/- 9); format: functional; details: dose 9-9.5 mg/kg, time 19 day
B16-F10 [6] = test: Antitumor activity against metastatic mouse B16-F10 cells implanted in C57BL/6 mouse assessed as number of lung metastases at 9 to 9.5 mg/kg, ip administered for 22 days by histological analysis (reference value: 223 +/- 12); format: functional; details: dose 9-9.5 mg/kg, time 22 day
B16-F10 [7] = test: Antitumor activity against metastatic mouse B16-F10 cells implanted in C57BL/6 mouse assessed as number of lung metastases at 4.6 to 42 mg/kg, ip administered every 3rd day for 22 days measured on day 23 by histological analysis (reference value: 223 +/- 12); format: functional; details: dose 4.6-42 mg/kg, time 23 day
U-87 MG = test: Cytotoxicity against human U-87 MG cells assessed as inhibition of cell growth; format: functional, cell-based, U-87MG ATCC
HCT-116 = test: Cytotoxicity against human HCT-116 cells assessed as inhibition of cell growth; format: functional, cell-based

CCOC(=O)C1=C(N)N(c2sc(C)c(C)c2C(=O)OCC)/C(=C/C(=O)c2ccccc2)C1=O
IC50 (B16-F10 [1]): 41.2 µM | IC50 at 24 h [2]: > 100 µM

CCOC(=O)C1=C(Nc2ccccc2)S/C(=C\C2CCCCC2)C1=O
IC50 (MCF7): 45.3 µM | IC50 (JAR): 95.2 µM

CCOC(=O)C1=C(N)N(c2sc3c(c2C(=O)OCC)CCCCC3)/C(=C/C(=O)c2ccccc2)C1=O
IC50 (B16-F10 [1]): 36.2 µM | IC50 at 24 h [2]: > 100 µM

CCOC(=O)C1=C(N)N(c2sc3c(c2C(=O)OCC)CCCC3)/C(=C/C(=O)c2ccc(C)cc2)C1=O
IC50 (B16-F10 [1]): 68.4 µM | IC50 at 24 h [2]: > 100 µM

CC(=O)O[C@H]1C(=O)[C@@]2(C)[C@H]([C@H](OC(=O)c3ccccc3)[C@]3(O)C[C@H](OC(=O)[C@H](O)[C@@H](NC(=O)c4ccccc4)c4ccccc4)C(C)=C1C3(C)C)[C@]1(OC(C)=O)CO[C@@H]1C[C@@H]2O [PACLITAXEL]
Activity (B16-F10 [3]): 158 | Activity (B16-F10 [4]): 125 | Activity (B16-F10 [5]): 97 | Activity (B16-F10 [6]): 80 | Activity (B16-F10 [7]): 50

N#CC1=C2NC(=O)c3c(sc4c3CCCCCC4)N2/C(=C/C(=O)c2ccccc2)C1=O
IC50 (B16-F10 [1]): 12.6 µM | IC50 at 24 h [2]: > 100 µM

COc1ccc(C(=O)/C=C2\C(=O)C(C(N)=O)=C3NC(=O)c4c(sc5c4CCCC5)N32)cc1
IC50 (B16-F10 [1]): 42.6 µM | IC50 at 24 h [2]: > 100 µM

CCOC(=O)c1c(N/C(=C\C(=O)c2ccc(C)cc2)C(O)=C(C#N)C#N)sc2c1CCCCC2
IC50 (B16-F10 [1]): > 100 µM | IC50 at 24 h [2]: > 100 µM

CCOC(=O)/C(C#N)=C(O)/C(=C/C(=O)c1ccccc1)Nc1sc2c(c1C(=O)OCC)CCCC2
IC50 (B16-F10 [1]): 38.6 µM | IC50 at 24 h [2]: > 100 µM

CCOC(=O)c1c(N/C(=C\C(=O)c2ccc(OC)cc2)C(O)=C(C#N)C#N)sc2c1CCCCC2
IC50 (B16-F10 [1]): > 100 µM | IC50 at 24 h [2]: > 100 µM

CCOC(=O)c1c(N2C(N)=C(C#N)C(=O)/C2=C\C(=O)c2ccc(OC)cc2)sc2c1CCCCC2
IC50 (B16-F10 [1]): 9.1 µM | IC50 at 24 h [2]: > 100 µM

CCOC(=O)C1=C(N)N(c2sc3c(c2C(=O)OCC)CCCC3)/C(=C/C(=O)c2ccc(OC)cc2)C1=O
IC50 (B16-F10 [1]): > 100 µM | IC50 at 24 h [2]: > 100 µM

CCOC(=O)c1c(N2C(N)=C(C(N)=O)C(=O)/C2=C\C(=O)c2ccc(OC)cc2OC)sc2c1CCCC2
IC50 (B16-F10 [1]): 48.2 µM | IC50 at 24 h [2]: > 100 µM

CCOC(=O)c1c(N2C(N)=C(C(N)=O)C(=O)/C2=C\C(=O)c2ccc(OCC)cc2)sc2c1CCCC2
IC50 (B16-F10 [1]): > 100 µM | IC50 at 24 h [2]: > 100 µM

CCOC(=O)C1=C2NC(=O)c3c(sc(C)c3C)N2/C(=C/C(=O)c2ccc(C)cc2)C1=O
IC50 (B16-F10 [1]): 43.6 µM | IC50 at 24 h [2]: > 100 µM

CCOC(=O)/C(C#N)=C(O)/C(=C/C(=O)c1ccc(C)cc1)Nc1sc2c(c1C(=O)OCC)CCCC2
IC50 (B16-F10 [1]): 28.9 µM | IC50 at 24 h [2]: > 100 µM

CCOC(=O)c1c(N2C(N)=C(C(N)=O)C(=O)/C2=C\C(=O)c2ccccc2)sc2c1CCCCC2
IC50 (B16-F10 [1]): 22.2 µM | IC50 at 24 h [2]: > 100 µM

CCOC(=O)C1=C(N)N(c2sc3c(c2C(=O)OCC)CCCC3)/C(=C/C(=O)c2ccc(OC)cc2OC)C1=O
IC50 (B16-F10 [1]): 54.1 µM | IC50 at 24 h [2]: > 100 µM

CCOC(=O)c1c(N)sc(C(=O)Nc2ccccc2)c1-c1ccccc1
IC50 (U-87 MG): 7.4 µM

CCOC(=O)c1c(NC(=C\C(=O)c2ccccc2)/C(O)=C(\C#N)C(N)=O)sc2c1CCCC2
IC50 (B16-F10 [1]): 14.1 µM | IC50 at 24 h [2]: > 100 µM

CCOC(=O)/C(C#N)=C(O)/C(=C/C(=O)c1ccc(OC)cc1)Nc1sc2c(c1C(=O)OCC)CCCC2
IC50 (B16-F10 [1]): 19.7 µM | IC50 at 24 h [2]: > 100 µM

CCOC(=O)C1=C2NC(=O)c3c(sc4c3CCCC4)N2/C(=C/C(=O)c2ccccc2)C1=O
IC50 (B16-F10 [1]): 46.9 µM | IC50 at 24 h [2]: > 100 µM

CCOC(=O)C1=C(N)N(c2sc3c(c2C(=O)OCC)CCCCC3)/C(=C/C(=O)c2ccc(C)cc2)C1=O
IC50 (B16-F10 [1]): 25.2 µM | IC50 at 24 h [2]: > 100 µM

CCOC(=O)c1c(NC(=C\C(=O)c2ccc(C)cc2)/C(O)=C(\C#N)C(N)=O)sc(C)c1C
IC50 (B16-F10 [1]): 17.9 µM | IC50 at 24 h [2]: > 100 µM

CCOC(=O)C1=C(N)N(c2sc3c(c2C(=O)OCC)CCCC3)/C(=C/C(=O)c2ccccc2)C1=O
IC50 (B16-F10 [1]): 46.7 µM | IC50 at 24 h [2]: > 100 µM

CCOC(=O)c1c(N2C(N)=C(C(N)=O)C(=O)/C2=C\C(=O)c2ccccc2)sc2c1CCCC2
IC50 (B16-F10 [1]): 52.1 µM | IC50 at 24 h [2]: > 100 µM

CCOC(=O)C1=C(N)N(c2sc(C)c(C)c2C(=O)OCC)/C(=C/C(=O)c2ccc(Cl)cc2)C1=O
IC50 (B16-F10 [1]): 57.3 µM | IC50 at 24 h [2]: > 100 µM

CCOC(=O)C1=C2NC(=O)c3c(sc4c3CCCC4)N2/C(=C/C(=O)c2ccc(Cl)cc2)C1=O
IC50 (B16-F10 [1]): 54.4 µM | IC50 at 24 h [2]: > 100 µM

NC(=O)C1=C2NC(=O)c3c(sc4c3CCCC4)N2/C(=C/C(=O)c2ccccc2)C1=O
IC50 (B16-F10 [1]): 56.9 µM | IC50 at 24 h [2]: > 100 µM

CCOC(=O)C1=C2NC(=O)c3c(sc4c3CCCC4)N2/C(=C/C(=O)c2ccc(OC)cc2OC)C1=O
IC50 (B16-F10 [1]): 32.6 µM | IC50 at 24 h [2]: > 100 µM

O=C(CSc1nc2sc3c(c2c(=O)n1Cc1ccccc1)CCCC3)NNC(=S)Nc1ccccc1
IC50 (HCT-116): 5.33 µM

CCOC(=O)C1=C2NC(=O)c3c(sc4c3CCCC4)N2/C(=C/C(=O)c2cccs2)C1=O
IC50 (B16-F10 [1]): 58.6 µM | IC50 at 24 h [2]: > 100 µM

Cc1ccc(C(=O)/C=C2\C(=O)C(C#N)=C3NC(=O)c4c(sc5c4CCCCC5)N32)cc1
IC50 (B16-F10 [1]): 8.8 µM | IC50 at 24 h [2]: > 100 µM

CCOC(=O)C1=C2NC(=O)c3c(sc4c3CCCCCC4)N2/C(=C/C(=O)c2ccccc2)C1=O
IC50 (B16-F10 [1]): 23.6 µM | IC50 at 24 h [2]: > 100 µM

CCOC(=O)c1c(N2C(N)=C(C(N)=O)C(=O)/C2=C\C(=O)c2ccc(Cl)cc2)sc2c1CCCC2
IC50 (B16-F10 [1]): 56.5 µM | IC50 at 24 h [2]: > 100 µM

CCOC(=O)C1=C(N)N(c2sc3c(c2C(=O)OCC)CCCC3)/C(=C/C(=O)c2cccs2)C1=O
IC50 (B16-F10 [1]): 57 µM | IC50 at 24 h [2]: > 100 µM

CCOC(=O)/C(C#N)=C(O)/C(=C/C(=O)c1ccc(C)cc1)Nc1sc(C)c(C)c1C(=O)OCC
IC50 (B16-F10 [1]): 44.2 µM | IC50 at 24 h [2]: > 100 µM

CCOC(=O)C1=C2NC(=O)c3c(sc4c3CCCC4)N2/C(=C/C(=O)c2ccc(C)cc2)C1=O
IC50 (B16-F10 [1]): 40.5 µM | IC50 at 24 h [2]: > 100 µM

CCOC(=O)c1c(N2C(N)=C(C(N)=O)C(=O)/C2=C\C(=O)c2ccc(OC)cc2)sc2c1CCCC2
IC50 (B16-F10 [1]): 48.1 µM | IC50 at 24 h [2]: > 100 µM

CCOC(=O)c1c(NC(=C\C(=O)c2ccc(C)cc2)/C(O)=C(\C#N)C(N)=O)sc2c1CCCC2
IC50 (B16-F10 [1]): 11.9 µM | IC50 at 24 h [2]: > 100 µM

CCOC(=O)C1=C2NC(=O)c3c(sc(C)c3C)N2/C(=C/C(=O)c2ccc(Cl)cc2)C1=O
IC50 (B16-F10 [1]): 64.6 µM | IC50 at 24 h [2]: > 100 µM

NC(=O)C1=C2NC(=O)c3c(sc4c3CCCCC4)N2/C(=C/C(=O)c2ccccc2)C1=O
IC50 (B16-F10 [1]): 24.5 µM | IC50 at 24 h [2]: > 100 µM

CCOC(=O)C1=C(N)N(c2sc(C)c(C)c2C(=O)OCC)/C(=C/C(=O)c2ccc(OC)cc2)C1=O
IC50 (B16-F10 [1]): 41.4 µM | IC50 at 24 h [2]: > 100 µM

CCOC(=O)c1c(N/C(=C\C(=O)c2ccc(OC)cc2)C(O)=C(C#N)C#N)sc2c1CCCC2
IC50 (B16-F10 [1]): > 100 µM | IC50 at 24 h [2]: > 100 µM
